Blank lines part the entries; values can stand above or below the compound they belong to.
How the values were obtained:
[1] = Half life in human plasma; format: ADME, cell-free
[2] = in vitro; conditions: human, THP-1 cells
[3] = Tmax in human at 5 mg/kg, po; format: ADME, organism-based; conditions: in vivo
[4] = system: MV4-11; assay: cells; conditions: Homo sapiens, MV4-11, 72 h
[5] = system: Kasumi 1; assay: cells; conditions: Homo sapiens, Kasumi 1, 168 h
[6] = Cmax in human at 5 mg/kg, po; format: ADME, organism-based; conditions: in vivo
[7] = target: DCN1-like protein 1 (Homo sapiens, UniProt Q96GG9); assay: Inhibition of DCN1 (unknown origin) by TR-FRET analysis
Sequence of DCN1-like protein 1 (Q96GG9 whole entry): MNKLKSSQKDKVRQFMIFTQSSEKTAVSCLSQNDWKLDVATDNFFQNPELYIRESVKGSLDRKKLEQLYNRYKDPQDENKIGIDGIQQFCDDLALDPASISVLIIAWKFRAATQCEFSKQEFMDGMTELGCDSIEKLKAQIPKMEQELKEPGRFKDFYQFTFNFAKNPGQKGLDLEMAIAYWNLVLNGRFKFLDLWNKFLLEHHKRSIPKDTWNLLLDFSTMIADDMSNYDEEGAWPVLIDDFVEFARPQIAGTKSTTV

[8] = target: T1, Histone deacetylase 1 (Homo sapiens, UniProt Q13547); assay: Inhibition of human recombinant HDAC1 using fluorogenic HDAC substrate preincubated for 30 mins followed by substrate addition and measured after 15 mins by fluorescence based assay
T1 sequence (Q13547 whole entry): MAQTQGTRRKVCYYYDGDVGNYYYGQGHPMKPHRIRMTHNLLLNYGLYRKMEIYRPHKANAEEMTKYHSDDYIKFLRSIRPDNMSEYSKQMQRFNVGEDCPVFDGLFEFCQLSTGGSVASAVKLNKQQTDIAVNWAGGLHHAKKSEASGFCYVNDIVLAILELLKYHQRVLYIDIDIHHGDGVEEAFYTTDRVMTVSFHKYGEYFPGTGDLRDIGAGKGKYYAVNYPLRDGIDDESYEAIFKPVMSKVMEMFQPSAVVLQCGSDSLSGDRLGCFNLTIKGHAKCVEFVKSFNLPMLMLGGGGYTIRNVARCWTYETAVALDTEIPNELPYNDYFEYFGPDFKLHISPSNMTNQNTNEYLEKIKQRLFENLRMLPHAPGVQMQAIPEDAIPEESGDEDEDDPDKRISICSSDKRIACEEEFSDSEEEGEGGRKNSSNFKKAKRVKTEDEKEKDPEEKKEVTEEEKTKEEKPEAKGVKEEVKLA

[9] = Half life in CD-1 mouse at 2 mg/kg, iv; format: ADME, organism-based; conditions: in vivo
[10] = Cmax in CD-1 mouse at 2 mg/kg, iv; format: ADME, organism-based; conditions: in vivo
[11] = Oral bioavailability in mouse; format: ADME, organism-based; conditions: in vivo
[12] = target: Lysine-specific demethylase 6A (Homo sapiens, UniProt O15550); assay: Inhibition of human UTX using Biotin-KAPRKQLATKAARK(me3)SAPATGG as substrate by MALDI-TOF analysis
Sequence of Lysine-specific demethylase 6A (O15550 whole entry): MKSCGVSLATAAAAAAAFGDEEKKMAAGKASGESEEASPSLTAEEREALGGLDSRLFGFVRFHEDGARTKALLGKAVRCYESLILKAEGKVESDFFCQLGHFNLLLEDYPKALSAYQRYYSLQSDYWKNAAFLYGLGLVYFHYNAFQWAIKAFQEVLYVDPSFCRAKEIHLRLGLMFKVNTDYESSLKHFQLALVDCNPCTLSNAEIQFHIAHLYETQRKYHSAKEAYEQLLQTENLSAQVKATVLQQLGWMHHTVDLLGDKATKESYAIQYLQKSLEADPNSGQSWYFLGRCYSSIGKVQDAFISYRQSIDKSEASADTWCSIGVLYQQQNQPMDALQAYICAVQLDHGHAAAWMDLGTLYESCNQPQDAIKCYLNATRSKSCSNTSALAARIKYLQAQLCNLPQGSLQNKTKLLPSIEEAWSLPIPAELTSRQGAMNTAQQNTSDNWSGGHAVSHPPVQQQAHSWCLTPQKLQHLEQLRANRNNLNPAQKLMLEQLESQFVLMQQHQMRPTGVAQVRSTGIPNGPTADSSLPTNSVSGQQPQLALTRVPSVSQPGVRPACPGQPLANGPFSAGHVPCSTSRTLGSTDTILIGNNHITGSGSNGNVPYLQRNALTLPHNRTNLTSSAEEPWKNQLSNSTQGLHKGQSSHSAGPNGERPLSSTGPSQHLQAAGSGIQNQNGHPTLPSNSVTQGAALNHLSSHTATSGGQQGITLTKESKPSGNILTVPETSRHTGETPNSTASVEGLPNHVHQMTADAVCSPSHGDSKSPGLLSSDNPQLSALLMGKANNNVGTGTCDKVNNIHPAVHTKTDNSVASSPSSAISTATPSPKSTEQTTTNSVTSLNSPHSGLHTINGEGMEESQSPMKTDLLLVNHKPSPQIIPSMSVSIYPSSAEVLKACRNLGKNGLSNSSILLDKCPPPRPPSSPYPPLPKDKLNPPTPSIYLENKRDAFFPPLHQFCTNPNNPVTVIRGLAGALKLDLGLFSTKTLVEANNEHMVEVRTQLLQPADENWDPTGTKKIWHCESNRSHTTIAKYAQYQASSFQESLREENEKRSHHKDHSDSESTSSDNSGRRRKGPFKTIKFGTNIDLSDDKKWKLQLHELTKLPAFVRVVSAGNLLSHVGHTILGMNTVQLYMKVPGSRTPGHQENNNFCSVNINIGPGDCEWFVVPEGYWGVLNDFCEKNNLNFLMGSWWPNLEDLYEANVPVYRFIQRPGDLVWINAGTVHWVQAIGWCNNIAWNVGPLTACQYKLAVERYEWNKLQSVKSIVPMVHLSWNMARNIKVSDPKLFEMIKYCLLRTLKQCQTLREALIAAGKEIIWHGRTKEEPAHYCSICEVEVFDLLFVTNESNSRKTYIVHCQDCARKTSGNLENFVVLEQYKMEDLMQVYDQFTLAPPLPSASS

[13] = target: T2, Lysine-specific histone demethylase 1A (Homo sapiens, UniProt O60341)
[14] = target: T2, Lysine-specific histone demethylase 1A; assay: Inhibition of human LSD1 by luminescence assay
[15] = target: T3, Bromodomain-containing protein 4 (Homo sapiens, UniProt O60885); assay: Inhibition of human BRD4 BD1 by TR-FRET assay
[16] = target: T3, Bromodomain-containing protein 4; assay: Inhibition of human BRD4 BD2 by TR-FRET assay
[17] = target: Tubulin; assay: Inhibition of tubulin polymerization (unknown origin) by fluorescence based assay; format: protein-complex assay, Homo sapiens
[18] = target: T2, Lysine-specific histone demethylase 1A; assay: Inhibition of human LSD1 expressed in Escherichia coli Rosetta (DE3) cells using H3K4me2 peptide as substrate and measured after 1 hr by fluorescence based analysis
[19] = Half life in BALB/c mouse plasma at 5 mg/kg, ip measured after 24 hrs by LC-MS/MS analysis; format: ADME, organism-based
[20] = Oral bioavailability in BALB/c mouse at 5 mg/kg measured after 24 hrs by LC-MS/MS analysis; format: ADME, organism-based; conditions: in vivo
[21] = system: Leukemia cell; assay: Antitumor activity against human Leukemia cells assessed as reduction in cell growth incubated for 72 hrs by MTT assay; format: functional, cell-based
[22] = target: Spermine oxidase (Homo sapiens, UniProt Q9NWM0); assay: Inhibition of SMOX (unknown origin) using spermine as substrate preincubated for 1 hr followed by substrate addition and measured after 20 mins by luminometer analysis
Sequence of Spermine oxidase (Q9NWM0 whole entry): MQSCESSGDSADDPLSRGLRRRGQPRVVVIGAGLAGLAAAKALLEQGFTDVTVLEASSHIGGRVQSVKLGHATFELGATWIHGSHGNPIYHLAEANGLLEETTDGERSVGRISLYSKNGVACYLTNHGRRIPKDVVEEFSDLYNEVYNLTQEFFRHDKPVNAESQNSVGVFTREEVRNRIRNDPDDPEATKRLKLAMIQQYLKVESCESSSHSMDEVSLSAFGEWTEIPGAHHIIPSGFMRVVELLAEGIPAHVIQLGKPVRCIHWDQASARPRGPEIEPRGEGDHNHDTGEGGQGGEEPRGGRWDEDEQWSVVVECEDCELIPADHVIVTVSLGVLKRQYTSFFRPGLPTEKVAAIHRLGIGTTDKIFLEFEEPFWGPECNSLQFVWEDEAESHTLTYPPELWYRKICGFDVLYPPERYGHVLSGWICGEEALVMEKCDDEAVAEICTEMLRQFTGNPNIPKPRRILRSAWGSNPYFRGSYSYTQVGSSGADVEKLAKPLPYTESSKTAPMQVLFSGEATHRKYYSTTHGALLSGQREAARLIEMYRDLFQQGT

[23] = target: T1, Histone deacetylase 1; assay: Inhibition of HDAC1 (unknown origin)
[24] = target: T2, Lysine-specific histone demethylase 1A; assay: Inhibition of LSD1 (unknown origin) at 10 uM relative to control

Compound: COc1ccc(-c2c(-c3ccc(C#N)c(F)c3)nc(N3CCC(N)CC3)n(C)c2=O)cc1F.O=S(=O)(O)c1ccccc1 [PULRODEMSTAT BESILATE]
IC50 at 72 h [2]: 7 nM
Tmax [3]: 4 h
IC50 [4]: 1400 nM
IC50 [5]: 2 nM
Cmax [6]: 19 ng/mL

Compound: CN(C)CCn1nnnc1Sc1ccnc2nc(SCc3ccc(Br)cc3)nn12
IC50 [7]: 14.8 nM

Compound: NC1CC1c1ccc(NC(=O)CCCc2ccccc2)cc1 (stereo not given)
IC50 [8]: > 30000 nM

Compound: O=C(O)c1ccc(CN2CCC(CN[C@@H]3C[C@H]3c3ccccc3)CC2)cc1 [GSK2879552]
half-life [9]: 1.9 h
Cmax [10]: 720 ng/mL
bioavailability [11]: 59.2%

Compound: C/C(=N\NC(=O)c1cccc(S(=O)(=O)N2CCOCC2)c1)c1cc(Cl)ccc1O
IC50 [15]: 77 nM
IC50 [16]: 33 nM

Compound: O=S1(=O)CCCN(S(=O)(=O)c2ccc(-c3cnc(C4CC4)o3)cc2)c2ccccc21
IC50 [17]: 3100 nM
IC50 [18]: 2800 nM

Compound: N[C@H]1CC[C@H](N[C@@H]2C[C@H]2c2ccccc2)CC1
half-life [19]: 10 h
bioavailability [20]: 77%
EC50 [21]: 0.1 nM

Compound: Nc1ccccc1NC(=O)c1ccc(CCCC(=O)Nc2ccc(C3CC3N)cc2)cc1 (stereo not given)
IC50 [23]: 300 nM
IC50 [13]: 300 nM

More lines, now with the values ahead:

half-life [1]: 22 h
Compound: Nc1nnc(CN[C@@H]2C[C@H]2c2ccc(OCc3ccccc3)cc2)o1

IC50 [12]: 27000 nM
IC50 [13]: < 1000 nM
Compound: NC1CC1c1ccc(NC(=O)c2ccc(O)c3ncccc23)cc1 (stereo not given)

IC50 [14]: 50 nM
Compound: COC(=O)/C=C/c1ccc(CN(C(=O)OC(C)(C)C)C2CC2c2ccc(F)cc2)cc1 (stereo not given)

IC50 [22]: 148000 nM
Compound: C=C/C=C/c1cccc(Oc2cccc(Cl)c2CNc2nc(N)n[nH]2)c1/C=C/C=C

inhibition [24]: 52.1%
Compound: Nc1n[nH]c(NCc2ccccc2Oc2ccc(-c3ccccc3)cc2)n1

From ChEMBL document CHEMBL5537179, “Combination Therapy and Dual-Target Inhibitors Based on LSD1: New Emerging Tools in Cancer Therapy” (J Med Chem, 2024)
